Patent publication US20140275094A1, “METHOD FOR TREATING PULMONARY ARTERIAL HYPERTENSION IN A PATIENT NOT HAVING IDIOPATHIC PULMONARY FIBROSIS” (GILEAD SCIENCES, INC., priority 2012, published 2014)

Experiments:
[1] = target: T1, organic anion-transporting polypeptide 1B1 (OATP1B1) (Homo sapiens, UniProt Q9Y6L6); experiment: Inhibition of OATP1B1, transfected CHO cells; type: cell-based
T1 construct: expressed in transfected cells; host or cells: CHO
T1 sequence (Q9Y6L6 1-691): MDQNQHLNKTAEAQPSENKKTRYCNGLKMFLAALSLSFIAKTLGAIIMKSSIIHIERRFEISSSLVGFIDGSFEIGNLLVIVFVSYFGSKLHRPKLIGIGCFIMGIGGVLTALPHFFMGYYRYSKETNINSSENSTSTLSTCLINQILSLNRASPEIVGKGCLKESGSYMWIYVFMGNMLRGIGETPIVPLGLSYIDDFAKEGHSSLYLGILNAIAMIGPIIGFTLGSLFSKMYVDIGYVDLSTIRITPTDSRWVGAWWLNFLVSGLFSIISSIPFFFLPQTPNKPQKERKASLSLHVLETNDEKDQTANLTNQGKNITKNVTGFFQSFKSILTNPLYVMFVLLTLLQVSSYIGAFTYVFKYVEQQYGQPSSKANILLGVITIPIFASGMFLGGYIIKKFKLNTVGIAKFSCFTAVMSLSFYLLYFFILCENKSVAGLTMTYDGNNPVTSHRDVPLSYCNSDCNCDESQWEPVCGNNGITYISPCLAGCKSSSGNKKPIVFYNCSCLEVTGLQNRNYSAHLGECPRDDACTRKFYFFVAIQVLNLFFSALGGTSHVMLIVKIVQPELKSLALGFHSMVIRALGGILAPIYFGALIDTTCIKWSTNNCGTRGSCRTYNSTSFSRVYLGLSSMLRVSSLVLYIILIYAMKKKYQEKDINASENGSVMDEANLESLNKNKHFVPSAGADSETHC
Procedure: (§1) Inhibition constants (IC50) were measured for human bile salt export pump (BSEP), sodium taurocholate cotransporting polypeptide (NTCP), multidrug resistance protein 2 (MRP2), P-glycoprotein (Pgp), breast cancer resistance protein (BCRP), organic anion-transporting polypeptide 1B1 (OATP1B1), and OATP1B3 in transfected cell-lines. Known inhibitors were used as positive controls.

[2] = target: T2, breast cancer resistance protein (BCRP) (Homo sapiens, UniProt Q9UNQ0); experiment: Inhibition of BCRP, transfected MDCKII cells; type: cell-based
T2 construct: expressed in transfected cells; host or cells: MDCKII
T2 sequence (Q9UNQ0 1-655): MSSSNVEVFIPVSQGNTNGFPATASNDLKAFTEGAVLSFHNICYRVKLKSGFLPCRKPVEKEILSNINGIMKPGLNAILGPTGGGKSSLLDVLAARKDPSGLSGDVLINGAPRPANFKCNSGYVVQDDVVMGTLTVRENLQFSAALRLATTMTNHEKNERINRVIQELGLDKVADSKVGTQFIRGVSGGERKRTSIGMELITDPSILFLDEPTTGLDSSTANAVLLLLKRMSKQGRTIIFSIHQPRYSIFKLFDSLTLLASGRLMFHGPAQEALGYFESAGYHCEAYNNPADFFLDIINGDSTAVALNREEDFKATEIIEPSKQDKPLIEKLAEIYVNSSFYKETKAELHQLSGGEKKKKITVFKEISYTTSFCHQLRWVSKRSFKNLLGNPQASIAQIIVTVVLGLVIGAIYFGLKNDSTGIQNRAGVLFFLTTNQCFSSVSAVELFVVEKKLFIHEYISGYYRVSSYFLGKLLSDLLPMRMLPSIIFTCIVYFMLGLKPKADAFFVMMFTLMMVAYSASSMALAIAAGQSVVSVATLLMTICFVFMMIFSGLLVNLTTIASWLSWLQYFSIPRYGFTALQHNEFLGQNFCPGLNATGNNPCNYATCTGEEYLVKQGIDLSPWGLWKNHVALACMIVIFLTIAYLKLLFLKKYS
Procedure: as §1

OATP1B3 = target: T3, OATP1B3 (Homo sapiens, UniProt Q9NPD5); experiment: Inhibition of OATP1B3, transfected CHO cells; type: cell-based; settings: OAT1B3
T3 construct: expressed in transfected cells; host or cells: CHO
T3 sequence (Q9NPD5 1-702): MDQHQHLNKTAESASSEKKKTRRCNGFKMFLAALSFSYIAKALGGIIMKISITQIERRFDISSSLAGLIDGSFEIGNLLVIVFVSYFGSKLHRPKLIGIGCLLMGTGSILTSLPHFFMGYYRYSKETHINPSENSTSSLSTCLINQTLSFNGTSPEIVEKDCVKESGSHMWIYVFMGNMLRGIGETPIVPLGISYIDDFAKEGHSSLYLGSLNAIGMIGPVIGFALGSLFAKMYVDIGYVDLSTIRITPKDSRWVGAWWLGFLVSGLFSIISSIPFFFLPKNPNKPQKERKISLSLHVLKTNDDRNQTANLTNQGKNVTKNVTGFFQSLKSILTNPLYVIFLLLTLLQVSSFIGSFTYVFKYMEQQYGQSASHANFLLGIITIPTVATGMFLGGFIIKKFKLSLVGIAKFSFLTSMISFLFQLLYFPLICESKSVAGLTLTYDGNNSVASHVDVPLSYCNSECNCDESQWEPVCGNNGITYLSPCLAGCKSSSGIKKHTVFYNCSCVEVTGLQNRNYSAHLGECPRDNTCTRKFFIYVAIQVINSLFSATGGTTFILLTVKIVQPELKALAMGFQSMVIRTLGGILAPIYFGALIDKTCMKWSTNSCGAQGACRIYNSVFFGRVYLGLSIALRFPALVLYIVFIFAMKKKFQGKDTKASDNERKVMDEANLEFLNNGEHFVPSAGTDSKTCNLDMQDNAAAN
Procedure: as §1

[3] = target: T4, human bile salt export pump (BSEP) (Homo sapiens, UniProt O95342); experiment: Inhibition of hepatic transporter BSEP, Sf9 cell membrane vesicles; type: biochemical
T4 construct: expressed in transfected cells; host or cells: Sf9 cell membrane vesicles
Procedure: as §1

[4] = target: T5, sodium taurocholate cotransporting polypeptide (NTCP) (Homo sapiens, UniProt Q14973); experiment: Inhibition of hepatic transporter NTCP, transfected CHO cells; type: cell-based
T5 construct: expressed in transfected cells; host or cells: Chinese Hamster Ovary (CHO)
T5 sequence (Q14973 1-349): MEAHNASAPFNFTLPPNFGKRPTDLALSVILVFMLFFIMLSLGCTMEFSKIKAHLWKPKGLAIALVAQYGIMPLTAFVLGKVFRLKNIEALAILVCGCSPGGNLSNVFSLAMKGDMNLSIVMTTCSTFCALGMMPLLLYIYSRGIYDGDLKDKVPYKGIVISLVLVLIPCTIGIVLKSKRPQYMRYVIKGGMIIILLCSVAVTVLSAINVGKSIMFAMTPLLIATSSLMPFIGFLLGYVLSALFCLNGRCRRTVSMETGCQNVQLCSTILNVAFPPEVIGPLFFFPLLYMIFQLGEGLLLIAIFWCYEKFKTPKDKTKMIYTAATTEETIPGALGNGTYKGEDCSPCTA
Procedure: as §1

P-glycoprotein (Pgp) = target: T6, P-glycoprotein (Pgp) (Homo sapiens, UniProt P08183); experiment: Inhibition of Pgp, transfected MDCKII cells; type: cell-based
T6 construct: expressed in transfected cells; host or cells: Madin-Darby canine kidney strain II (MDCKII)
Procedure: as §1

human hepatocytes = settings: cited from earlier work

T4 sequence (O95342 whole entry): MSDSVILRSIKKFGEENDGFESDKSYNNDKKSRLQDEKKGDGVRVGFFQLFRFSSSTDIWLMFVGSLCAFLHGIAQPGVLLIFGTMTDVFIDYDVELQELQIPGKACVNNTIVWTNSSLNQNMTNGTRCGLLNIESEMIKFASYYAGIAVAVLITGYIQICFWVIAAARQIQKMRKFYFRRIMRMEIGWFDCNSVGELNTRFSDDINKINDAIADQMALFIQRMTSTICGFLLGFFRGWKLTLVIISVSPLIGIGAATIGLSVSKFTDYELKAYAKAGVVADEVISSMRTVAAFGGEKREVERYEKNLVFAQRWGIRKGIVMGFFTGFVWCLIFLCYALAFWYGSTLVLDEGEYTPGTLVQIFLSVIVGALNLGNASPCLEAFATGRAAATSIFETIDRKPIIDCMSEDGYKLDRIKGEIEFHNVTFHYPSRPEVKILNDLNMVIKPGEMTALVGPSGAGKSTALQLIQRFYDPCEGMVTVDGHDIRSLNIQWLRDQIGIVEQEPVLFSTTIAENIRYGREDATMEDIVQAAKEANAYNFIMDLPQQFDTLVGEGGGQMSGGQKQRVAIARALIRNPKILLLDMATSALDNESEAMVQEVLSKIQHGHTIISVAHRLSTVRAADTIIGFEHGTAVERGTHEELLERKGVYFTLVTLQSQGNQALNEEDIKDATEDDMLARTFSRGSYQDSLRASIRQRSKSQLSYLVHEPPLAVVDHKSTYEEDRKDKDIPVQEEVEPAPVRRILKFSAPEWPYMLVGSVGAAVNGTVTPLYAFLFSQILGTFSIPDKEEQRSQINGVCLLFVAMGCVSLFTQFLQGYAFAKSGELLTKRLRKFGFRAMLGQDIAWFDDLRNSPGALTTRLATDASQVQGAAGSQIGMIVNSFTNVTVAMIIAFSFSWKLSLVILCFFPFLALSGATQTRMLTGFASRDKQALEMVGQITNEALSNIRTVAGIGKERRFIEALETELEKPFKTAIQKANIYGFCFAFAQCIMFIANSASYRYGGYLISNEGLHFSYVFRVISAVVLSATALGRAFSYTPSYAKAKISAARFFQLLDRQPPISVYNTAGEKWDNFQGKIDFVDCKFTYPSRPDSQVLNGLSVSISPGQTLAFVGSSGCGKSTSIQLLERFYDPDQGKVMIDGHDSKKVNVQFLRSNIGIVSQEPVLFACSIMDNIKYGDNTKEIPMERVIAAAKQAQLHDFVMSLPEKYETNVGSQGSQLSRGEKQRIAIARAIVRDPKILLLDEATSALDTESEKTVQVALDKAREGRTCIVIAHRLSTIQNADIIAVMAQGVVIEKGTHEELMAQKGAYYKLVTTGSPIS
T6 sequence (P08183 whole entry): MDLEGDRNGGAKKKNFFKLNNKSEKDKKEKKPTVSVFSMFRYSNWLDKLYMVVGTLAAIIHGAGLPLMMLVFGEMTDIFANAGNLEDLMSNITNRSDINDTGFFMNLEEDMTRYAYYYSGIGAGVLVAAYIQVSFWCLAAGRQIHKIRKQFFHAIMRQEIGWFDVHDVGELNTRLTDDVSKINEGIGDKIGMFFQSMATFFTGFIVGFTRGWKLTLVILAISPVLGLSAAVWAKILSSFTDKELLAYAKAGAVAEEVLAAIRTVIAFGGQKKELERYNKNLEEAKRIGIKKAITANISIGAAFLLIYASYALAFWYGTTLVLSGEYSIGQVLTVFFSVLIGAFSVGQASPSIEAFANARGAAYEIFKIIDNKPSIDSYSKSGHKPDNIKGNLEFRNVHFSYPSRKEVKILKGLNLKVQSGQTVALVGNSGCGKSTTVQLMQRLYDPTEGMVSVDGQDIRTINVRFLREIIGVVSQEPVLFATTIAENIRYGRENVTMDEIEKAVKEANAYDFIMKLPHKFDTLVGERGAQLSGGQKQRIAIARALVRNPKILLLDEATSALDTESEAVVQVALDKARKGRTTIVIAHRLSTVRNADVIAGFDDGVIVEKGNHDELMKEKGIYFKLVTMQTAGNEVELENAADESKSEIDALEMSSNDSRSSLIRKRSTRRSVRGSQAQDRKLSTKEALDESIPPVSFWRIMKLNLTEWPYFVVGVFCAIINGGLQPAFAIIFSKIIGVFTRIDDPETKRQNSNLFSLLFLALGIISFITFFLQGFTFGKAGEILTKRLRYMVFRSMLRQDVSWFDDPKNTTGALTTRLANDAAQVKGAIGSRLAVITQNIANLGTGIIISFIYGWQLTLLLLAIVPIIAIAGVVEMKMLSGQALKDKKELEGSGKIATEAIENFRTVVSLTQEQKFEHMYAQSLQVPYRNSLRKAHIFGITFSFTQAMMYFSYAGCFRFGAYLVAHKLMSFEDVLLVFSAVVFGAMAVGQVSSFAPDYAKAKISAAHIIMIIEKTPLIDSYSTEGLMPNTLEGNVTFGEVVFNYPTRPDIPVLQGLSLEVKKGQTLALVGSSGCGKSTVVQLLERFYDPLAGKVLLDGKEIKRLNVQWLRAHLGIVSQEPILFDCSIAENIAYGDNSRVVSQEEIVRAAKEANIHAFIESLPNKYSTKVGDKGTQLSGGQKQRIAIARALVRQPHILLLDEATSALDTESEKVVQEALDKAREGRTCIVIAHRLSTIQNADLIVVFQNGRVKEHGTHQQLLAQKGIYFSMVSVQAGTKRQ

| IC50 [1] [µM] | IC50 [2] [µM] | IC50 (OATP1B3) [µM] | effect on NTCP [4] | IC50 ([4]; NTCP) [µM] | IC50 (P-glycoprotein (Pgp)) [µM] | SMILES | effect on BSEP [3] | IC50 ([3]; BSEP) [µM] | effect on hepatobiliary transporter activity (human hepatocytes) |
| --- | --- | --- | --- | --- | --- | --- | --- | --- | --- |
| 2 ± 0.3 | 75 ± 37 | 2.1 ± 0.3 | inhibition was observed | 8 | 64 ± 15 | CCCNS(=O)(=O)Nc1ncnc(OCCOc2ncc(Br)cn2)c1-c1ccc(Br)cc1 [Macitentan, N-[5-(4-bromophenyl)-6-(2-(5-bromopyrimidin-2-yloxy)ethoxy)-pyrimidin-4-yl]-N′-propylaminosulfonamide] | inhibition was observed | 12 | – |
| – | – | – | – | – | – | COc1cc(OC)nc(O[C@H](C(=O)O)C(OC)(c2ccccc2)c2ccccc2)n1 [darusentan] | – | – | less potent |
| – | – | – | – | – | – | Cc1cc2c(cc1CC(=O)c1sccc1S(=O)(=O)Nc1onc(C)c1Cl)OCO2 [sitaxsentan] | – | – | decreased transporter activity to the greatest extent |
